Assay results as given in PubChem BioAssay (NCI).
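Grown in 96-well plates, cells were treated for 48 hours with each compound at five concentrations. Insufficient inhibition: endpoint recorded as highest concentration tested. Abbreviation: GI50, concentration required for 50% inhibition of growth. TGI: concentration producing complete growth inhibition.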

Assays:
Experiment in all cases: growth of human tumour cells (NCI), 48 h
786-0 renal = system: 786-0 renal
A498 renal = system: A498 renal
A549 NSCLC = system: A549 NSCLC
ACHN renal = system: ACHN renal
BT-549 breast = system: BT-549 breast
CAKI-1 renal = system: CAKI-1 renal
CCRF-CEM leukemia = system: CCRF-CEM leukemia
COLO 205 colon = system: COLO 205 colon
DU-145 prostate = system: DU-145 prostate
HCC-2998 colon = system: HCC-2998 colon
HCT-116 colon = system: HCT-116 colon
HCT-15 colon = system: HCT-15 colon
HL-60(TB) leukemia = system: HL-60(TB) leukemia
HOP-62 NSCLC = system: HOP-62 NSCLC
HOP-92 NSCLC = system: HOP-92 NSCLC
HS 578T breast = system: HS 578T breast
HT29 colon = system: HT29 colon
IGROV1 ovarian = system: IGROV1 ovarian
K-562 leukemia = system: K-562 leukemia
KM12 colon = system: KM12 colon
LOX IMVI melanoma = system: LOX IMVI melanoma
M14 melanoma = system: M14 melanoma
MALME-3M melanoma = system: MALME-3M melanoma
MCF7 breast = system: MCF7 breast
MDA-MB-231 breast = system: MDA-MB-231 breast
MDA-MB-435 = system: MDA-MB-435
MOLT-4 leukemia = system: MOLT-4 leukemia
NCI-H226 lung = system: NCI-H226 lung
NCI-H460 lung = system: NCI-H460 lung
NCI-H522 lung = system: NCI-H522 lung
NCI/ADR-RES ovarian = system: NCI/ADR-RES ovarian
OVCAR-3 ovarian = system: OVCAR-3 ovarian
OVCAR-4 ovarian = system: OVCAR-4 ovarian
OVCAR-5 ovarian = system: OVCAR-5 ovarian
OVCAR-8 ovarian = system: OVCAR-8 ovarian
RPMI-8226 leukemia = system: RPMI-8226 leukemia
RXF 393 renal = system: RXF 393 renal
SF-268 CNS = system: SF-268 CNS
SF-295 CNS = system: SF-295 CNS
SF-539 CNS = system: SF-539 CNS
SK-MEL-2 melanoma = system: SK-MEL-2 melanoma
SK-MEL-28 melanoma = system: SK-MEL-28 melanoma
SK-MEL-5 melanoma = system: SK-MEL-5 melanoma
SK-OV-3 ovarian = system: SK-OV-3 ovarian
SN12C renal = system: SN12C renal
SNB-19 CNS = system: SNB-19 CNS
SNB-75 CNS = system: SNB-75 CNS
SR leukemia = system: SR leukemia
SW-620 colon = system: SW-620 colon
T-47D breast = system: T-47D breast
TK-10 renal = system: TK-10 renal
U251 CNS = system: U251 CNS
UACC-257 melanoma = system: UACC-257 melanoma
UO-31 renal = system: UO-31 renal
EKVX NSCLC = system: EKVX NSCLC
NCI-H23 lung = system: NCI-H23 lung
PC-3 prostate = system: PC-3 prostate
UACC-62 melanoma = system: UACC-62 melanoma

## CCOC(=O)N1CCN(c2nc(Nc3cc(C)[nH]n3)c3ccccc3n2)CC1
786-0 renal
  GI50: 1.95 µM
  TGI: 14.2 µM
A498 renal
  GI50: 0.423 µM
  TGI: 2.78 µM
A549 NSCLC
  GI50: 7.6 µM
  TGI: 28.8 µM
ACHN renal
  GI50: 0.707 µM
  TGI: > 100 µM
BT-549 breast
  GI50: 3.85 µM
  TGI: 16.2 µM
CAKI-1 renal
  GI50: 0.97 µM
  TGI: 17.8 µM
CCRF-CEM leukemia
  GI50: 10.1 µM
  TGI: 56.2 µM
COLO 205 colon
  GI50: 1.83 µM
  TGI: 5.41 µM
DU-145 prostate
  GI50: 3.89 µM
  TGI: 40 µM
HCC-2998 colon
  GI50: 11.7 µM
  TGI: 48.7 µM
HCT-116 colon
  GI50: 2.13 µM
  TGI: 21.3 µM
HCT-15 colon
  GI50: 0.992 µM
  TGI: > 100 µM
HL-60(TB) leukemia
  GI50: 12 µM
  TGI: 34.1 µM
HOP-62 NSCLC
  GI50: 2.81 µM
  TGI: > 100 µM
HOP-92 NSCLC
  GI50: 1.92 µM
  TGI: 11.9 µM
HS 578T breast
  GI50: 1.16 µM
  TGI: 5.42 µM
HT29 colon
  GI50: 2.49 µM
  TGI: 21.2 µM
IGROV1 ovarian
  GI50: 0.638 µM
  TGI: 35.5 µM
K-562 leukemia
  GI50: 2.94 µM
  TGI: > 100 µM
KM12 colon
  GI50: 0.479 µM
  TGI: 23.1 µM
LOX IMVI melanoma
  GI50: 1.86 µM
  TGI: 10.1 µM
M14 melanoma
  GI50: 9.16 µM
  TGI: 28.9 µM
MALME-3M melanoma
  GI50: 21.9 µM
  TGI: 62.2 µM
MCF7 breast
  GI50: 4.61 µM
  TGI: > 100 µM
MDA-MB-231 breast
  GI50: 4.97 µM
  TGI: 81.6 µM
MDA-MB-435
  GI50: 0.829 µM
  TGI: 62.3 µM
MOLT-4 leukemia
  GI50: 15.5 µM
  TGI: 42.7 µM
NCI-H226 lung
  GI50: 1.58 µM
  TGI: 10.8 µM
NCI-H460 lung
  GI50: 4.42 µM
  TGI: 26.4 µM
NCI-H522 lung
  GI50: 2.82 µM
  TGI: 30.7 µM
NCI/ADR-RES ovarian
  GI50: 4.25 µM
  TGI: 37 µM
OVCAR-3 ovarian
  GI50: 7.69 µM
  TGI: 37.3 µM
OVCAR-4 ovarian
  GI50: 4.04 µM
  TGI: > 100 µM
OVCAR-5 ovarian
  GI50: 3.25 µM
  TGI: > 100 µM
OVCAR-8 ovarian
  GI50: 8.63 µM
  TGI: 63.2 µM
RPMI-8226 leukemia
  GI50: 3.4 µM
  TGI: 13.6 µM
RXF 393 renal
  GI50: 1.11 µM
  TGI: 5.01 µM
SF-268 CNS
  GI50: 3.54 µM
  TGI: 39 µM
SF-295 CNS
  GI50: 5.98 µM
  TGI: > 100 µM
SF-539 CNS
  GI50: 1.92 µM
  TGI: 9.7 µM
SK-MEL-2 melanoma
  GI50: 0.737 µM
  TGI: 55.5 µM
SK-MEL-28 melanoma
  GI50: 12.2 µM
  TGI: 91.3 µM
SK-MEL-5 melanoma
  GI50: 7.94 µM
  TGI: 21.4 µM
SK-OV-3 ovarian
  GI50: 2.62 µM
  TGI: 34.3 µM
SN12C renal
  GI50: 2.24 µM
  TGI: 52 µM
SNB-19 CNS
  GI50: 10.3 µM
  TGI: > 100 µM
SNB-75 CNS
  GI50: 0.727 µM
  TGI: 5.66 µM
SR leukemia
  GI50: 0.446 µM
  TGI: 20.2 µM
SW-620 colon
  GI50: 2.1 µM
  TGI: 45.2 µM
T-47D breast
  GI50: 4.83 µM
  TGI: 70.7 µM
TK-10 renal
  GI50: 0.909 µM
  TGI: 35.1 µM
U251 CNS
  GI50: 2.13 µM
  TGI: 23.5 µM
UACC-257 melanoma
  GI50: 16.3 µM
  TGI: 52.6 µM
UO-31 renal
  GI50: 0.854 µM
  TGI: 24.6 µM

## Cc1ccc(C)c2c1C(O)(C#Cc1ccccc1)c1ccccc1C2(O)C#Cc1ccccc1 (configuration not stated)
786-0 renal
  GI50: 3.72 µM
  TGI: > 35.7 µM
A498 renal
  GI50: 2.2 µM
  TGI: 14.9 µM
A549 NSCLC
  GI50: 3.12 µM
  TGI: > 100 µM
ACHN renal
  GI50: 2.84 µM
  TGI: > 100 µM
CAKI-1 renal
  GI50: 2.38 µM
  TGI: > 30.7 µM
CCRF-CEM leukemia
  GI50: 2.36 µM
  TGI: > 25.4 µM
COLO 205 colon
  GI50: 2.01 µM
  TGI: 6.48 µM
DU-145 prostate
  GI50: 3.32 µM
  TGI: > 100 µM
EKVX NSCLC
  GI50: 3.36 µM
  TGI: > 29 µM
HCC-2998 colon
  GI50: 5.56 µM
  TGI: > 100 µM
HCT-116 colon
  GI50: 3.04 µM
  TGI: > 100 µM
HCT-15 colon
  GI50: 1.03 µM
  TGI: > 100 µM
HL-60(TB) leukemia
  GI50: 4.04 µM
  TGI: > 100 µM
HOP-62 NSCLC
  GI50: 5.88 µM
  TGI: > 100 µM
HOP-92 NSCLC
  GI50: 2.29 µM
  TGI: > 27.3 µM
HS 578T breast
  GI50: 3.4 µM
  TGI: > 100 µM
HT29 colon
  GI50: 2.96 µM
  TGI: > 100 µM
IGROV1 ovarian
  GI50: 3.05 µM
  TGI: 51.3 µM
K-562 leukemia
  GI50: 4.4 µM
  TGI: > 100 µM
KM12 colon
  GI50: 2.93 µM
  TGI: 27.1 µM
LOX IMVI melanoma
  GI50: 3.44 µM
  TGI: > 64.2 µM
M14 melanoma
  GI50: 3.6 µM
  TGI: > 82.5 µM
MCF7 breast
  GI50: 2.47 µM
  TGI: > 100 µM
MDA-MB-231 breast
  GI50: 2.84 µM
  TGI: > 100 µM
MDA-MB-435
  GI50: 2.42 µM
  TGI: 16.2 µM
MOLT-4 leukemia
  GI50: 2.5 µM
  TGI: > 23.3 µM
NCI-H226 lung
  GI50: 1.9 µM
  TGI: 9.46 µM
NCI-H23 lung
  GI50: 3.23 µM
  TGI: > 29.5 µM
NCI-H460 lung
  GI50: 2.38 µM
  TGI: 12 µM
NCI-H522 lung
  GI50: 4.55 µM
  TGI: > 100 µM
NCI/ADR-RES ovarian
  GI50: 3.63 µM
  TGI: > 28.9 µM
OVCAR-3 ovarian
  GI50: 3.12 µM
  TGI: > 34.7 µM
OVCAR-4 ovarian
  GI50: 3.85 µM
  TGI: > 100 µM
OVCAR-5 ovarian
  GI50: 8.39 µM
  TGI: > 100 µM
OVCAR-8 ovarian
  GI50: 3.82 µM
  TGI: > 100 µM
PC-3 prostate
  GI50: 2.42 µM
  TGI: > 23.7 µM
RPMI-8226 leukemia
  GI50: 1.83 µM
SF-268 CNS
  GI50: 3.65 µM
  TGI: > 100 µM
SF-295 CNS
  GI50: 2.91 µM
  TGI: > 100 µM
SF-539 CNS
  GI50: 3.42 µM
  TGI: > 79.3 µM
SK-MEL-2 melanoma
  GI50: 2.98 µM
  TGI: 11.5 µM
SK-MEL-28 melanoma
  GI50: 3.75 µM
  TGI: > 88.5 µM
SK-MEL-5 melanoma
  GI50: 1.63 µM
  TGI: 4.99 µM
SK-OV-3 ovarian
  GI50: 3.44 µM
  TGI: > 100 µM
SN12C renal
  GI50: 3.04 µM
  TGI: 89.2 µM
SNB-19 CNS
  GI50: 3.74 µM
  TGI: > 100 µM
SNB-75 CNS
  GI50: 4.04 µM
  TGI: > 100 µM
SR leukemia
  GI50: 2.52 µM
  TGI: > 100 µM
SW-620 colon
  GI50: 3.03 µM
  TGI: > 100 µM
T-47D breast
  GI50: 2 µM
  TGI: > 27.5 µM
TK-10 renal
  GI50: 3.68 µM
  TGI: > 100 µM
U251 CNS
  GI50: 2.76 µM
  TGI: > 100 µM
UACC-257 melanoma
  GI50: 2.54 µM
  TGI: 6.6 µM
UACC-62 melanoma
  GI50: 2.84 µM
  TGI: > 100 µM
UO-31 renal
  GI50: 1.89 µM
  TGI: 6.83 µM
